The values that follow come from patent US20040023972A1, “Use of substituted imidazo[1,2-a]-pyridin-, -pyrimidin-and-pyrazin-3-yl-amine derivatives in the preparation of medicaments for inhibiting NOS” (Gruenenthal GmbH, priority 2000, published 2004).

The first experiment deals with T1, NO synthase (Rattus norvegicus, UniProt P29476).
T1 construct: the supernatant was then removed by decantation and frozen in portions at −80° C; from tissue; host or cells: rat cerebellum, 20,000 g supernatant of homogenate
Description: HTS-NOS assay (NOS assay): conversion of radioactive arginine, cation-exchanger filter plate. The format is biochemical. Particulars: 10 μM. Here is the method:
This assay enables the percentage inhibition of NO synthase by an active ingredient to be determined by measuring the NOS activity under the action of the active ingredient. NO synthase is mixed together with radioactively labelled arginine and the active ingredient under suitable conditions. After terminating the NO-forming reaction at a given time, the amount of unconverted arginine is determined directly or indirectly. A comparison of that amount with the amount of arginine that remains in a mixture of NOS and arginine without the addition of active ingredient and under otherwise identical conditions gives the % inhibition of NO synthase by the tested active ingredient. This assay can be carried out as follows:
(a) incubation of NO synthase with labelled arginine as substrate in a reaction vessel,
(b) separation of the labelled arginine from the labelled citrulline optionally formed as a product of the enzymatic reaction, at a time at which the citrulline concentration is increasing,
(c) measurement of the amount of arginine remaining in each case.
Separation is carried out over a filter plate membrane.
This NOS assay is suitable especially for “high throughput screening” (HTS) on microtitre plates (MTP).
In this HTS-NOS assay, radioactive arginine is used as substrate. The assay volume can be chosen in the range from 25 μl to 250 μl, according to the type of microtitre plate (MTP). Depending on the source of the enzyme used, co-factors and co-enzymes are added. Incubation of the batches on this microtitre plate (assay MTP) according to step (a) is carried out at room temperature and is for 5 to 60 minutes according to the enzyme activity used (units). At the end of the incubation (step (a)), the plate is placed into a cell harvester which is equipped with a MTP having a cation-exchanger membrane as the filter base (filter MTP). All batches of the assay MTP are transferred to the filter MTP and filtered off with suction over a cation-exchanger filter plate, a paper filter charged with phosphate groups. The filter MTP is then washed with buffer or water. By means of this procedure, the arginine substrate that remains is bound to the cation exchanger, while the enzymatically formed radioactive citrulline is washed out quantitatively. After drying the filter MTP and adding scintillation liquid, the bound arginine can be counted using a scintillation counter. An uninhibited NOS reaction is reflected in low radioactivity. An inhibited enzyme reaction means that the radioactive arginine has not been converted. This means that a high level of radioactivity is found on the filter.
Rat cerebella were used as the starting tissue. The animals were anaesthetized and sacrificed, the brain tissue, the cerebellum, was removed by dissection, 1 ml of enzyme preparation buffer was added per rat cerebellum (4° C.), and disintegration was carried out using a Polytron homogeniser for 1 minute at 6000 rpm, followed by centrifugation for 15 minutes at 4° C. and 20,000 g; the supernatant was then removed by decantation and frozen in portions at −80° C. (the precipitate was discarded).
96-well MTP having a well capacity of <250 μl were used.
Pipetting sequence: see Table 1.
When the pipetting operation was complete, a cover was placed on the MTP (assay MTP), and incubation was at 25° C. (room temperature (RT)) for from 5 to 60 minutes, according to the amount and activity of the enzyme used.
The contents of the assay MTP were then transferred with the aid of a 96-well cell harvester to a 96-well cation exchanger MTP (filter MTP) and filtered off with suction. This was followed by washing once with […] of H2O (from a bath).
The plate was then dried for 1 hour at 60° C. in a drying cabinet. The underside of the filter MTP was then accurately sealed from beneath with a “back seal”. 35 μl of scintillation fluid per well were then added by means of a pipette. The upper side of the plate was also sealed with a “top seal”. […]
For the compound `C#[N+]CCCCCCNc1c(-c2ccccc2C(F)(F)F)nc2cc(C)cc(C)n12` [Example 75, {6-[5,7-Dimethyl-2-(2-trifluorO-methyl-phenyl)-imidazo[1,2-a]pyridin-3-ylamino]-hexyl}-methylidyne-ammonium], the “HTS-NOS assay: % inhibition (10 μM)” value was 56%.

Staying with this experiment, now noted: read-out: HTS-NOS assay: % inhibition (10 μM).
Usually inhibition stands for the share of the control response that was lost under treatment. For `Cc1cc(C)n2c(NC(C)(C)CC(C)(C)C)c(-c3ccc(CO)o3)nc2c1` [Example 62, {5-[5,7-Dimethyl-3-(1,1,3,3-tetramethyl-butylamino)-imidazo[1,2-a]pyridin-2-yl]-furan-2-yl}-methanol], the inhibition at 10 µM came to 55%.

With `Cc1ccn2c(NC(C)(C)CC(C)(C)C)c(-c3cccc4ccccc34)nc2c1` [Example 63, (7-Methyl-2-naphthalen-1-yl-imidazo[1,2-a]-pyridin-3-yl)-(1,1,3,3-tetramethyl-butyl)-amine], the inhibition at 10 µM was 52%. On to `Cc1ccn2c(NC(C)(C)C)c(-c3ccc(CO)o3)nc2c1` [Example 64, [5-(3-Tert-butylamino-7-methyl-imidazo[1,2-a]pyridin-2-yl)-furan-2-yl]-methanol], for which the inhibition at 10 µM came to 52%.

`Cc1ccn2c(NC(C)(C)C)c(-c3ccc(C4OCCO4)o3)nc2c1` [Example 65, Tert-butyl-[2-(5-[1,3]dioxolan-2-yl-furan-2-yl)-7-methyl-imidazo[1,2-a]pyridin-3-yl]-amine]: the inhibition at 10 µM turned out to be 62%. The same measure, in the same setting: in the case of `Cc1cc(C)n2c(NC(C)(C)CC(C)(C)C)c(-c3cc4ccccc4o3)nc2c1` [Example 66, (2-Benzofuran-2-yl-5,7-dimethyl-imidazo[1,2-a]pyridin-3-yl)-(1,1,3,3-tetramethyl-butyl)-amine] it was 53%. The same measure, in the same setting: the value for `Cc1cc(C)n2c(NC(C)(C)C)c(-c3ccc(C(=O)O)o3)nc2c1` [Example 67, 5-(3-Tert-butylamino-5,7-dimethyl-imidazo[1,2-a]pyridin-2-yl)-furan-2-carboxylic acid] was 56%; that for `Cc1ccn2c(NC(C)(C)C)c(-c3ccco3)nc2c1` [Example 68, Tert-butyl-(2-furan-2-yl-7-methyl-imidazo[1,2-a]pyridin-3-yl)-amine] was 57%; that for `Cc1ccn2c(NC3CCCCC3)c(C)nc2c1` [Example 69, Cyclohexyl-(2,7-dimethyl-imidazo[1,2-a]-pyridin-3-yl)-amine] was 55%. On the same count and under the same terms, the value for `Cc1cccn2c(NC(C)(C)CC(C)(C)C)c(-c3cccc(Cl)c3Cl)nc12` [Example 70, [2-(2,3-Dichlorophenyl)-8-methyl-imidazo[1,2-a]pyridin-3-yl]-(1,1,3,3-tetramethyl-butyl)-amine] was 52%; that for `Cc1ccc(-c2nc3cc(C)ccn3c2NC(C)(C)CC(C)(C)C)cc1` [Example 71, (7-Methyl-2-p-tolyl-imidazo[1,2-a]pyridin-3-yl)-(1,1,3,3-tetramethyl-butyl)-amine] was 58%.

As to `COc1ccccc1-c1nc2cc(C)ccn2c1Nc1c(C)cccc1C` [Example 72, (2,6-Dimethyl-phenyl)-[2-(2-methoxy-phenyl)-7-methyl-imidazo[1,2-a]pyridin-3-yl]-amine], the inhibition at 10 µM was found to be 53%. Still for that read-out and setting: in the case of `CCCCNc1c(-c2cccc(O)c2)nc2cc(C)cc(C)n12` [Example 73, 3-(3-Butylamino-5,7-dimethyl-imidazo[1,2-a]pyridin-2-yl)-phenol] it was 61%; in that of `CCCCNc1c(-c2cccc(OC)c2OC)nc2cc(C)ccn12` [Example 74, Butyl-[2-(2,3-dimethoxy-phenyl)-7-methyl-imidazo[1,2-a]pyridin-3-yl]-amine], 62%; in that of `Cc1ccn2c(NC(C)(C)C)c(-c3ccccn3)nc2c1` [Example 76, Tert-butyl-(7-methyl-2-pyridin-2-yl-imidazo[1,2-a]pyridin-3-yl)-amine], 67%. On the same count and under the same terms, the value for `Cc1cc(C)n2c(NC3CCCCC3)c(C3CCCCC3)nc2c1` [Example 77, Cyclohexyl-(2-cyclohexyl-5,7-dimethyl-imidazo[1,2-a]pyridin-3-yl)-amine] was 63%.
